Experimental data: ChEMBL document CHEMBL4196074, “Metallomics for Alzheimer's disease treatment: Use of new generation of chelators combining metal-cation binding and transport properties” (Eur J Med Chem, 2018)
Calls of active or inactive are those of the source. Unless noted, the calls are words filed in the database; no cut-off is given here.

How the values were obtained:
[1] = Metal chelating activity assessed as compound-Cu2+ complex formation by UV-vis spectrophotometric analysis
[2] = Metal chelating activity assessed as compound-Zn2+ complex formation by UV-vis spectrophotometric analysis
[3] = tested on: SH-SY5Y; test: Neuroprotective activity against amyloid beta (1 to 42 residues) induced cell death in human SH-SY5Y cells expressing APPswe mutant at 1 uM after 48 hrs by WST1 assay; assay type: functional, cell-based
[4] = tested on: SH-SY5Y; test: Inhibition of Zn2+-mediated amyloid beta (1 to 42 residues) production in human SH-SY5Y cells expressing APPswe mutant at 1 uM after 72 hrs by ELISA based spectrophotometric analysis; assay type: cell-based
[5] = tested on: SH-SY5Y; test: Antiproliferative activity against human SH-SY5Y cells at 1 uM after 48 hrs by WST1 assay; assay type: cell-based
[6] = Metal chelating activity assessed as compound-Fe3+ complex formation by UV-vis spectrophotometric analysis
[7] = tested on: SH-SY5Y; test: Inhibition of Fe3+-mediated amyloid beta (1 to 42 residues) production in human SH-SY5Y cells expressing APPswe mutant at 1 uM after 72 hrs by ELISA based spectrophotometric analysis; assay type: cell-based
[8] = tested on: SH-SY5Y; test: Inhibition of Cu2+-mediated amyloid beta (1 to 42 residues) production in human SH-SY5Y cells expressing APPswe mutant at 1 uM after 72 hrs by ELISA based spectrophotometric analysis; assay type: cell-based
[9] = tested on: SH-SY5Y; test: Inhibition of Cu2+-mediated ROS generation in human SH-SY5Y cells expressing APPswe mutant at 1 uM after 72 hrs by DCF-DA dye-based fluorescence spectroscopic analysis; assay type: cell-based
[10] = tested on: SH-SY5Y; test: Inhibition of Zn2+-mediated ROS generation in human SH-SY5Y cells expressing APPswe mutant at 1 uM after 72 hrs by DCF-DA dye-based fluorescence spectroscopic analysis; assay type: cell-based
[11] = tested on: SH-SY5Y; test: Inhibition of Fe3+-mediated ROS generation in human SH-SY5Y cells expressing APPswe mutant at 1 uM after 72 hrs by DCF-DA dye-based fluorescence spectroscopic analysis; assay type: cell-based
[12] = target: Acetylcholinesterase (Homo sapiens) (UniProt P22303); test: Inhibition of acetylcholinesterase (unknown origin) at 1 uM using acetylthiocholine chloride as substrate measured for 5 to 40 mins
Acetylcholinesterase (Homo sapiens), sequence (P22303 whole entry): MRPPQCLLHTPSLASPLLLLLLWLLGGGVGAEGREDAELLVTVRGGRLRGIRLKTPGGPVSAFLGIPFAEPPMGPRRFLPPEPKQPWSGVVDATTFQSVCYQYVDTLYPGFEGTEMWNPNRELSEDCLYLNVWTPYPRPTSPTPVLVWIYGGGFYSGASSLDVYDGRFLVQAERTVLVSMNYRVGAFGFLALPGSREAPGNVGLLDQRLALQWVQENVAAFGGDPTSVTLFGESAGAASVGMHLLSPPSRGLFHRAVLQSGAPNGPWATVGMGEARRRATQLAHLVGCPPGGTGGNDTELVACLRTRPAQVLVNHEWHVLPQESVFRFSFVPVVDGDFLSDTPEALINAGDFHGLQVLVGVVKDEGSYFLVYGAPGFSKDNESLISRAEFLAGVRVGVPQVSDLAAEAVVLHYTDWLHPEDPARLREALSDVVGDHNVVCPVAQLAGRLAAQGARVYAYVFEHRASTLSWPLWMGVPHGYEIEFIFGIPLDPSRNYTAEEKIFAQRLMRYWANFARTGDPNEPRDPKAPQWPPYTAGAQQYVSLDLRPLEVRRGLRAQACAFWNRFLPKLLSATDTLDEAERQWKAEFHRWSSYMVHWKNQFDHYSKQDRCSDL

[13] = tested on: SH-SY5Y; test: Antiproliferative activity against human SH-SY5Y cells at 1 uM after 24 to 72 hrs by WST1 assay; assay type: cell-based
[14] = Effective permeability of the compound at 10^-5 mol/L after 5 hrs by UV-based PAMPA; assay type: ADME; conditions: read-out: Peff
[15] = tested on: SH-SY5Y; test: Inhibition of Cu2+-induced toxicity in human SH-SY5Y cells expressing APPswe mutant assessed as increase in cell viability at 1 uM after 72 hrs by WST1 assay; assay type: cell-based
[16] = tested on: SH-SY5Y; test: Inhibition of Cu2+-induced caspase-3 activity in human SH-SY5Y cells expressing APPswe mutant at 1 uM after 72 hrs by AcDEVD substrate-based spectrophotometric analysis; assay type: cell-based

Structure (SMILES)	Activity [1]	Activity [2]	Activity [3]	inhibition [4]	Activity [5]	Activity [6]	inhibition [7]	inhibition [8]	inhibition [9]	inhibition [10]	inhibition [11]	inhibition [12]	Activity [13]	Papp at 5 h, 10 µM [14] [×10⁻⁶ cm/s]	inhibition [15]	inhibition [16]
COc1cccc(/C=N/Nc2nncc3ccccc23)c1O	Active	Active	inactive	inactive	Toxic	Active	inactive	inactive								
C(=N\Nc1nncc2ccccc12)/c1ccc2ccccc2n1	Active	inactive	inactive		Toxic	inactive		inactive								
CCN1/C(=C/c2c(N/N=C/c3ccc4ccccc4n3)c(=O)c2=O)Sc2ccccc21	Active	Active	inactive	inactive		Active	inactive	inactive	inactive	inactive	inactive	inactive	Non-Toxic			
C[C@H](CCC(=O)Nc1ccc(C(=O)N/N=C/c2ccc(C(C)(C)C)cc2O)cc1)[C@H]1CC[C@H]2[C@@H]3[C@H](O)C[C@@H]4C[C@H](O)CC[C@]4(C)[C@H]3C[C@H](O)[C@]12C (stereo in doubt)	Active	Active	inactive	inactive		Active	inactive	inactive	inactive	inactive	inactive	inactive	Non-Toxic			
COc1cccc(/C=N/NC(=O)c2ccc(NC(=O)CC[C@@H](C)[C@H]3CC[C@H]4[C@@H]5[C@H](O)C[C@@H]6C[C@H](O)CC[C@]6(C)[C@H]5C[C@H](O)[C@]34C)cc2)c1O (stereo in doubt)	Active	Active	inactive	inactive		Active	inactive	inactive	inactive	inactive	inactive	inactive	Non-Toxic			
C[C@H](CCC(=O)Nc1ccc(C(=O)N/N=C/c2ccc3ccccc3n2)cc1)[C@H]1CC[C@H]2[C@@H]3[C@H](O)C[C@@H]4C[C@H](O)CC[C@]4(C)[C@H]3C[C@H](O)[C@]12C (stereo in doubt)	Active	Active	inactive	inactive		Active	inactive	inactive	inactive	inactive	inactive	inactive	Non-Toxic			
Cc1ncc(CO)c(/C=N/NC(=O)c2ccc(NC(=O)CC[C@@H](C)[C@H]3CC[C@H]4[C@@H]5[C@H](O)C[C@@H]6C[C@H](O)CC[C@]6(C)[C@H]5C[C@H](O)[C@]34C)cc2)c1O (stereo in doubt)	Active	Active	inactive	inactive		Active	inactive	inactive	inactive	inactive	inactive	inactive	Non-Toxic	2.2		
COc1ccc(Nc2c(N/N=C/c3ccc(C(C)(C)C)cc3O)c(=O)c2=O)cc1	Active	inactive	inactive			Active	inactive	inactive	inactive		inactive	inactive	Non-Toxic			
c1ccc(C(=NNc2nncc3ccccc23)c2ccccn2)nc1	Active	Active	inactive	inactive	Toxic	Active	inactive	inactive								
Cc1ncc(CO)c(/C=N/Nc2nncc3ccccc23)c1O	Active	inactive	inactive		Toxic	Active	inactive	inactive						7.8		
CCN1/C(=C/c2c(N/N=C/c3cccc(OC)c3O)c(=O)c2=O)Sc2ccccc21	Active	inactive	inactive			Active	inactive	inactive	inactive		inactive	inactive	Non-Toxic			
CCN1/C(=C/c2c(N/N=C/c3c(CO)cnc(C)c3O)c(=O)c2=O)Sc2ccccc21	Active	inactive	inactive			Active	inactive	inactive	inactive		inactive	inactive	Non-Toxic	2.8		
COc1ccc(Nc2c(N/N=C/c3c(CO)cnc(C)c3O)c(=O)c2=O)cc1	Active	inactive	inactive			Active	inactive	inactive	inactive		inactive	inactive	Non-Toxic	1.6		
CCN1/C(=C/c2c(N/N=C/c3cc(C(C)(C)C)ccc3O)c(=O)c2=O)Sc2ccccc21	Active	inactive	inactive			Active	inactive	inactive	inactive		inactive	inactive	Non-Toxic			
COc1cccc(/C=N/NC(=O)CC[C@@H](C)[C@H]2CC[C@H]3[C@@H]4[C@H](O)C[C@@H]5C[C@H](O)CC[C@]5(C)[C@H]4C[C@H](O)[C@]23C)c1O	Active	inactive	Active			inactive		inactive				inactive	Non-Toxic		Active	Active
Oc1c(I)cc(Cl)c2cccnc12				Active			Active	Active								
CC(C)(C)c1ccc(O)c(/C=N/Nc2nncc3ccccc23)c1	Active	Active	inactive	inactive	Toxic	Active	inactive	inactive								
COc1ccc(Nc2c(N/N=C/c3ccc4ccccc4n3)c(=O)c2=O)cc1	Active	inactive	inactive			Active	inactive	inactive	inactive		inactive	inactive	Non-Toxic			
C[C@H](CCC(=O)Nc1ccc(C(=O)NN=C(c2ccccn2)c2ccccn2)cc1)[C@H]1CC[C@H]2[C@@H]3[C@H](O)C[C@@H]4C[C@H](O)CC[C@]4(C)[C@H]3C[C@H](O)[C@]12C	Active	inactive	inactive			Active	inactive	inactive	inactive		inactive	inactive	Non-Toxic			
COc1ccc(Nc2c(N/N=C/c3cccc(OC)c3O)c(=O)c2=O)cc1	Active	inactive	inactive			Active	inactive	inactive	inactive		inactive	inactive	Non-Toxic			
